In patent US6723716B1, “7-acylamino-3-heteroarylthio-3-cephem carboxylic acid antibiotics and prodrugs thereof” (Essential Therapeutics, Inc., priority 1999, dated 2004):
≈ marks a conversion by molar mass, not a printed value.

Experiments:
S. aureus ATCC29213 = assay: Human serum binding effect: MIC with and without human serum; type: cell-based, Staphylococcus aureus; conditions: 1:1 human serum:MHB
Description: The approximate measurement of the degree of binding of the compound to human serum proteins can be achieved by determination of the effect of the addition of human serum to the medium in which the MIC values against a selected bacterial strain is determined. The ratio of the MIC value obtained in presence of added human serum to the MIC value determined without serum addition was used as a measure of serum binding and the results of such determination are presented below in Table 2.
In addition to the standard MIC determination described above, the staphylococcal strain ATCC29213 is also tested in a ratio 1:1, human serum:MHB to obtain a preliminary estimate of the bioactivity of test compounds in serum: The assay was performed in Human Serum and Mueller-Hinton Broth (HSMHB) with a final bacterial inoculum of 1×10^6 CFU/mL (from an early-log phase culture) and a final volume of 100 μL. Control drugs, including imipenem, vancomycin, dicloxacillin, and new compounds were prepared in double-concentrated Mueller-Hinton broth at a concentration equivalent to 4-fold the desired final concentration. Dilution of compounds were prepared directly in the plates by serial 2-fold dilution in double-concentrated Mueller-Hinton using a multichannel pipette. Positive and negative growth controls were included in each plate. […] The inoculum was prepared by diluting the early log-phase (1 h) culture 1:100 with fresh double-concentrated Mueller-Hinton broth. A volume of 25 μL of the inoculum was added to each well. […] The exact inoculum was determined by applying 10 μl of 10-fold serial dilution of the bacterial suspension on TSA. After overnight incubation at 35° C., colony forming units were manually counted.

[1] = tested on: S. aureus Spain #356 (Meth^R); assay: Broth microdilution MIC (NCCLS); type: cell-based; conditions: Staphylococcus aureus, 24 h
Description: (§1) Compounds were evaluated for antimicrobial activity against a panel of bacterial strains using a broth microdilution assay performed as recommended by the NCCLS (1). The minimum inhibitory concentration (MIC) was defined as the lowest concentration of drug which prevented the growth of the bacteria.
(§2) For this primary panel, the assay was performed in Mueller-Hinton Broth (MHB) with a final bacterial inoculum of 5×10^5 CFU/mL (from an early-log phase culture) and a final volume of 100 μL. Control drugs, including imipenem, vancomycin, Penicillin G, dicloxacillin (vs. MSSA ATCC29213 only), and new compounds were prepared at a concentration equivalent to 2-fold the desired final concentration. Dilution of compounds were prepared directly in the plates by serial 2-fold dilution using a multichannel pipette. Positive and negative growth control were included in each plate.
(§3) The bacterial inocula were prepared as follows. For each strain one isolated colony was used to inoculate a volume of 8 mL of Mueller-Hinton broth and these cultures were incubated overnight (20 h) at 35° C. in a shaking incubator. At the exception of Enterococcus strains, culture were then diluted 1:10 and allowed to grow for an additional one hour at 35° C. in a shaking incubator. The inocula were prepared by diluting the early log-phase (1 h) cultures 1:1000 with fresh Mueller-Hinton broth. E. faecium and E. faecalis were prepared by diluting overnight cultures 1:333 and 1:666, respectively, with fresh Mueller-Hinton broth. A volume of 50 μL of the inocula was added to each well. […] The exact inocula were determined by applying 10 μL of 10-fold serial dilution of the bacterial suspensions on TSA. After overnight incubation at 35° C., colony forming units were manually counted.
(§4) Microtiter plates were incubated during 24 h at 35° C. and were read using a microtiterplate reader (Molecular Devices) at 650 nm as well as by visual observation using a microtiterplate reading mirror.

E. faecium VanA (Van^R) = assay: Broth microdilution MIC (NCCLS); type: cell-based; conditions: Enterococcus faecium
Description: as §1, §2, §3, §4

[2] = tested on: S. aureus PC1 (Meth^S)(lac^+); assay: Broth microdilution MIC (NCCLS); type: cell-based; conditions: Staphylococcus aureus
Description: as §1, §2, §3, §4

[3] = tested on: S. haemolyticus 05 (Meth^R); assay: Broth microdilution MIC (NCCLS); type: cell-based; conditions: Staphylococcus haemolyticus
Description: as §1, §2, §3, §4

S. aureus ATCC 29213 = assay: Broth microdilution MIC (NCCLS); type: cell-based; conditions: Staphylococcus aureus, ATCC29213; S. aureus ATCC 29213; Mueller-Hinton broth, 24 h at 35° C.; read-out: MIC
Description: as §1, §2, §3, §4

E. faecalis ATCC 29212 = assay: Broth microdilution MIC (NCCLS); type: cell-based; conditions: Enterococcus faecalis, ATCC29212
Description: as §1, §2, §3, §4

E. faecium ATCC 35667 = assay: Broth microdilution MIC (NCCLS); type: cell-based; conditions: Enterococcus faecium, ATCC35667
Description: as §1, §2, §3, §4

[4] = tested on: S. aureus ATCC 33593 (Meth^R); assay: Broth microdilution MIC (NCCLS); type: cell-based; conditions: Staphylococcus aureus, ATCC33593
Description: as §1, §2, §3, §4

P. aeruginosa ATCC 27853 = assay: Broth microdilution MIC (NCCLS); type: cell-based; conditions: Pseudomonas aeruginosa, ATCC27853
Description: as §1, §2, §3, §4

E. faecalis VanB (Van^R) = assay: Broth microdilution MIC (NCCLS); type: cell-based; conditions: Enterococcus faecalis
Description: as §1, §2, §3, §4

E. coli ATCC25992 = assay: Broth microdilution MIC (NCCLS); type: cell-based; conditions: Escherichia coli
Description: as §1, §2, §3, §4

[5] = tested on: S. aureus 76 (Meth^R)(lac^+); assay: Broth microdilution MIC (NCCLS); type: cell-based; conditions: Staphylococcus aureus
Description: as §1, §2, §3, §4

[6] = tested on: S. aureus Col (Meth^R)(lac^−); assay: Broth microdilution MIC (NCCLS); type: cell-based; conditions: Staphylococcus aureus
Description: as §1, §2, §3, §4

[7] = tested on: S. aureus ATCC 13709 (Meth^S); assay: Broth microdilution MIC (NCCLS); type: cell-based; conditions: Staphylococcus aureus, ATCC13709, S. aureus ATCC 13709 (Meth^S); read-out: MIC
Description: as §1, §2, §3, §4

E. faecium A491 (Amp^R) = assay: Broth microdilution MIC (NCCLS); type: cell-based; conditions: Enterococcus faecium
Description: as §1, §2, §3, §4

Row | Compound | Human serum binding effect (ratio of MIC value determined with and without human serum added) (S. aureus ATCC29213) | MIC [1] | MIC (E. faecium VanA (Van^R)) | MIC [2] | MIC [3] | MIC (S. aureus ATCC 29213) | MIC (E. faecalis ATCC 29212) | MIC (E. faecium ATCC 35667) | MIC [4] | MIC (P. aeruginosa ATCC 27853) | MIC (E. faecalis VanB (Van^R)) | MIC (E. coli ATCC25992) | MIC [5] | MIC [6] | MIC [7] | MIC (E. faecium A491 (Amp^R))
1 | COc1nc(CSCCN)c(SC2=C(C(=O)O)N3C(=O)[C@@H](NC(=O)/C(=N\O)c4cccc(N)n4)[C@H]3SC2)s1 [Cmpd 5, (7R)-7-[(Z)-2-(2-aminopyrid-6-yl)-2-(hydroxyimino)acetamido]-3-[4-(2-aminoethylthiomethyl)-2-methoxy-1,3-thiazol-5-ylthio]-3-cephem-4-carboxylic acid] | 4 | 4 µg/mL (≈ 6.69 µM) | 4 µg/mL (≈ 6.69 µM) | 0.25 µg/mL (≈ 0.418 µM) | 8 µg/mL (≈ 13.4 µM) | 0.25 µg/mL (≈ 0.418 µM) | 0.5 µg/mL (≈ 0.837 µM) | 4 µg/mL (≈ 6.69 µM) | 4 µg/mL (≈ 6.69 µM) | > 32 µg/mL | 1 µg/mL (≈ 1.67 µM) | 32 µg/mL (≈ 53.5 µM) | 4 µg/mL (≈ 6.69 µM) | 4 µg/mL (≈ 6.69 µM) | 0.13 µg/mL (≈ 0.217 µM) | > 32 µg/mL
2 | NCCSc1cncc(SC2=C(C(=O)O)N3C(=O)C(NC(=O)/C(=N\O)c4cccc(N)n4)C3SC2)n1 (stereo not shown) [Cmpd 6] | 128 | 16 µg/mL (≈ 29.2 µM) | 8 µg/mL (≈ 14.6 µM) | 0.5 µg/mL (≈ 0.911 µM) | 32 µg/mL (≈ 58.3 µM) | 0.5 µg/mL (≈ 0.911 µM) | 2 µg/mL (≈ 3.65 µM) | 8 µg/mL (≈ 14.6 µM) | 8 µg/mL (≈ 14.6 µM) | > 32 µg/mL | 4 µg/mL (≈ 7.29 µM) | 16 µg/mL (≈ 29.2 µM) | 16 µg/mL (≈ 29.2 µM) | 16 µg/mL (≈ 29.2 µM) | 0.25 µg/mL (≈ 0.456 µM) | > 32 µg/mL
3 | NCCSc1nccc(SC2=C(C(=O)O)N3C(=O)[C@@H](NC(=O)/C(=N\O)c4cccc(N)n4)[C@H]3SC2)n1 [Cmpd 8, (7R)-7-[(Z)-2-(2-aminopyrid-6-yl)-2-(hydroxyimino)acetamido]-3-[2-(2-aminoethylthio)-pyrimidin-4-ylthio]-3-cephem-4-carboxylic acid] | 128 | 16 µg/mL (≈ 29.2 µM) | 32 µg/mL (≈ 58.3 µM) | 1 µg/mL (≈ 1.82 µM) | 32 µg/mL (≈ 58.3 µM) | 1 µg/mL (≈ 1.82 µM) | 8 µg/mL (≈ 14.6 µM) | 16 µg/mL (≈ 29.2 µM) | 8 µg/mL (≈ 14.6 µM) | > 32 µg/mL | 16 µg/mL (≈ 29.2 µM) | 16 µg/mL (≈ 29.2 µM) | 16 µg/mL (≈ 29.2 µM) | 16 µg/mL (≈ 29.2 µM) | 0.5 µg/mL (≈ 0.911 µM) | > 32 µg/mL
4 | N=C(N)NCCSCc1nc(N)sc1SC1=C(C(=O)O)N2C(=O)[C@@H](NC(=O)/C(=N\O)c3nc(N)sc3Cl)[C@H]2SC1 [Cmpd 26, (7R)-7-[(Z)-2-(2-amino-5-chlorothiazol-4-yl)-2-(hydroxyimino)acetamido]-3-[4-(2-guanidinoethylthiomethyl)-2-amino-1,3-thiazol-5-ylthio]-3-cephem-4-carboxylic acid] | 2 | 0.5 µg/mL (≈ 0.752 µM) | 1 µg/mL (≈ 1.5 µM) | 0.06 µg/mL (≈ 0.0902 µM) | 0.5 µg/mL (≈ 0.752 µM) | 0.06 µg/mL (≈ 0.0902 µM) | 0.06 µg/mL (≈ 0.0902 µM) | 0.5 µg/mL (≈ 0.752 µM) | 0.5 µg/mL (≈ 0.752 µM) | 4 µg/mL (≈ 6.01 µM) | 0.06 µg/mL (≈ 0.0902 µM) | 4 µg/mL (≈ 6.01 µM) | 0.5 µg/mL (≈ 0.752 µM) | 0.25 µg/mL (≈ 0.376 µM) | 0.06 µg/mL (≈ 0.0902 µM) | 16 µg/mL (≈ 24.1 µM)
